The results in this text go back to US20240317826A1, “COMPOSITIONS AND METHODS FOR TREATING AND/OR I[…] AGENT FOR TREATING HIV-1 INFECTIONS” (priority 2021, published 2024).

This assay deals with HIV-1 virions. Nature of the assay: Infectivity in CEM-GFP cells of virions produced in the presence of stapled peptides. It counts as cell-based. Particulars: virions from 293T cells, 5 ng p24, infection of CEM-GFP cells in the absence of stapled peptides; GFP and p24. The procedure:
FIG. 11A and FIG. 11B show infectivity of virions in CEM GFP cells produced in 293T cells that were treated with various stapled peptide (at 5 μM concentration) or DMSO. Equal amounts of virions treated with stapled peptides were used to infect CEM-GFP cells and the infected cells were imaged on days 1, 3, 6, 9 and 12 (FIG. 11A) and subjected to p24 ALphaLisa (FIG. 11B). FIG. 11C and FIG. 11D show Infectivity of the virions produced in the presence of increasing concentrations of stapled peptide during production in 293T cells. The 293T cells transfected with pNL4-3 were treated with increasing concentrations of stapled peptides and equal amount of virions from these cells were used to infect CEM-GFP cells. The infected cells were imaged on day 6 (FIG. 11C) and subjected to p24 ALphaLisa (FIG. 11D).
To determine the infectivity of virions produced in the presence of DMSO (DMSO-V), SP-38 (SP38-V), SP-80 (SP80-V) and SP83-D225G (SP83-V), we used equal amounts (5 ng p24) of virions to infect CEM-GFP cells in the absence of stapled peptides (FIGS. 11a and c). […] Replication of the virus was monitored by GFP expression in […] and also by assaying for the production of p24 in the culture supernatants (FIGS. 11a-d).

Entries after “also recorded” stand apart in the source; their conditions may differ.

In the case of “lys-Leu-Met-Thr-Pro-Glu-Met-Phe-S5-Glu-Ile-Leu-S5-Cys-Asp-Leu-Asn [SP38]”, the “infectivity of virions produced in the presence of peptide” value is “defective for infection; also recorded: produced non-infection virions”.
